# Experimental data from US8987193B2, “Nisin derivatives and the use thereof” (University College Cork—National University of Ireland, Cork, priority 2008, dated 2015).
# Ends that are not written are not given here.
# Test system: C. sporogenes CBC5
# Experiment: Deferred antagonism assay
# Type: cell-based, Clostridium sporogenes
# Parameters: key: + = Enhanced bioactivity relative to control; − = Bioactivity equal to or less than control; NA = no activity evident
# Settings: XX and XXX hinge mutant producers
row,Substance,bioactivity relative to a nisin A-producing control
1,"NisinA QLT (ITSISLCTPGCKTGALMGCQLTTATCHCSIHVSK; not fully specified (bridges); also: lantibiotic nisin-A: lanthionine rings and dehydrated residues, places not given here; UniProt P13068 24-57, looked up, variant N20Q M21L K22T) [nisin A hinge variant QLT (i.e. N20Q, M21L, K22T)]",−
2,NisinA PAA,−
3,NisinA PMQ,−
4,NisinA PML,−
5,NisinA PMT,−
6,NisinA PIA,−
7,"NisinA GLA (ITSISLCTPGCKTGALMGCGLATATCHCSIHVSK; cysteine pairing not given here; also: lantibiotic nisin-A; UniProt P13068 24-57, looked up, variant N20G M21L K22A) [nisin A hinge variant GLA (i.e. N20G, M21L, K22A)]",−
8,"NisinA PTL (ITSISLCTPGCKTGALMGCPTLTATCHCSIHVSK; thioether (positions not given here); not fully specified (residues 2, 5, 33, bridges); also: lantibiotic nisin A, thioether rings and dehydro residues not given here; UniProt P13068 24-57, looked up, variant N20P M21T K22L) [nisin A hinge variant PTL (i.e. N20P, M21T, K22L)]",−
9,NisinA PAK,−
10,NisinA PMC,−
11,"NisinA SVA (ITSISLCTPGCKTGALMGCSVATATCHCSIHVSK; not fully specified (bridges); also: lantibiotic nisin-A: lanthionine rings and dehydrated residues, places not given here; UniProt P13068 24-57, looked up, variant N20S M21V K22A) [nisin A hinge variant SVA (i.e. N20S, M21V, K22A)]",−
12,"NisinA PAL (ITSISLCTPGCKTGALMGCPALTATCHCSIHVSK; not fully specified (bridges); also: lantibiotic nisin-A: lanthionine rings and dehydrated residues, places not given here; UniProt P13068 24-57, looked up, variant N20P M21A K22L) [nisin A hinge variant PAL (i.e. N20P, M21A, K22L)]",−
13,"NisinA PNR (ITSISLCTPGCKTGALMGCPNRTATCHCSIHVSK; not fully specified (bridges); also: lantibiotic nisin-A: lanthionine rings and dehydrated residues, places not given here; UniProt P13068 24-57, looked up, variant N20P M21N K22R) [nisin A hinge variant PNR (i.e. N20P, M21N, K22R)]",−
14,"NisinA HLT (ITSISLCTPGCKTGALMGCHLTTATCHCSIHVSK; cysteine pairing not given here; also: lantibiotic nisin-A; UniProt P13068 24-57, looked up, variant N20H M21L K22T) [nisin A hinge variant HLT (i.e. N20H, M21L, K22T)]",−
15,NisinA PSL,−
16,NisinA PTA,−
17,"NisinA PAT (ITSISLCTPGCKTGALMGCPATTATCHCSIHVSK; not fully specified (bridges); also: lantibiotic nisin-A: lanthionine rings and dehydrated residues, places not given here; UniProt P13068 24-57, looked up, variant N20P M21A K22T) [nisin A hinge variant PAT (i.e. N20P, M21A, K22T)]",−
18,"NisinA PLA (ITSISLCTPGCKTGALMGCPLATATCHCSIHVSK; not fully specified (bridges); also: lantibiotic nisin-A: lanthionine rings and dehydrated residues, places not given here; UniProt P13068 24-57, looked up, variant N20P M21L K22A) [nisin A hinge variant PLA (i.e. N20P, M21L, K22A)]",−
19,NisinA PIM,−
20,NisinA GVK,−
21,NisinA PMM,−
